Measured values from article PMC7954794, “Protein context shapes the specificity of SH3 domain-mediated interactions in vivo” (Nature Communications, 2021).

Test system: Abp1 PPIs
Test: DHFR-PCA of Abp1 SH3-swapped baits (Fig. 2B-D, S2C, S2F);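 on Protein-protein interaction distance between Abp1 SH3-swapped baits, to ABP1: Euclidean distance between DHFR-PCA score profiles of the baits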;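 on Protein-protein interaction distance between Abp1 SH3-swapped baits, to BEM1-2: Euclidean distance between DHFR-PCA score profiles of the baits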;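 on Protein-protein interaction distance between Abp1 SH3-swapped baits, to BOI1: Euclidean distance between DHFR-PCA score profiles of the baits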;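 on Protein-protein interaction distance between Abp1 SH3-swapped baits, to BZZ1-1: Euclidean distance between DHFR-PCA score profiles of the baits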
Assay type: cell-based, Saccharomyces cerevisiae
Description: Having determined that multiple PPIs require SH3s, we asked whether the latter establish PPI specificity independently from their host proteins by swapping domains (Fig. 2A). Using the second round of genome editing, we individually replaced Abp1 SH3 with the 27 yeast SH3s and 3 human Abp1 orthologs’ SH3s (CTTN, HCLS1, and DBNL, Fig. 2B). The reintroduction of its own SH3 (Abp1SH3 in Abp1) reconstitutes almost perfectly Abp1’s interaction profile (Kendall’s τ = 0.93, Fig. 2B). […] No homologous SH3 domain fully re-establishes the normal Abp1 PPI profile (Fig. 2B and Supplementary Fig. 2C). However, we observe a significant correlation (cophenetic correlation = 0.20, p value = 0.005, Fig. 2C) between the similarity of PPI profiles (Fig. 2B) and the sequence similarity of the SH3s. […] Nonetheless, a subset of SH3-dependent PPIs is only observed with the endogenous domain. For instance, Hua2 and App1, both well-characterized partners of Abp1[14],[18],[19], are only detected when Abp1 contains its own SH3 (WT or swapped via editing). A given SH3 may therefore not be fully replaceable with other paralogous or orthologous domains. This pattern is confirmed by cellular growth phenotypic analyses (Supplementary Fig. 2D, E). PPIs, SH3 sequence similarity, and growth profiles under stress conditions are correlated (Supplementary Fig. 2D, E). This relationship is particularly clear when analyzing growth on media supplemented with hygromycin.
The stuffing of YSC84 SH3 rendered the strain sterile and was therefore not used for this study as the assays require crosses. For genes containing two SH3s (BZZ1 and BEM1), a combination of this first stuffer with a second one ([…]) coding for a highly similar linker ([…]) was used, which allowed targeting each SH3 position independently. The two N-terminal domains of SLA1, which are separated by six nucleotides, were stuffed by a single stuffer. Cells containing pCAS were selected via the G418 resistance cassette from the plasmid on YPD plates (YPD + NAT 100 μg/ml (DHFR F[1,2] selection) + G418 200 µg/mL (Bioshop Canada)). Colonies were randomly selected and grown in YPD media without G418 to allow plasmid loss. The correct insertion of the stuffer was validated by PCR and Sanger sequencing. The SH3-swapped, -shuffled, and -mutated strains were constructed following a second CRISPR–Cas9 editing step with the same procedures. The stuffer sequences were targeted by specific gRNAs (one gRNA per stuffer) and replaced by PCR amplified specific SH3 (with 40 bp homology arms) or libraries of mutated SH3 domains for Deep Mutational Scanning (DMS) with 78 bp flanking homology regions. Validation of the SH3 domain insertions was done as we previously described except for DMS libraries (see below).
The overall DHFR-PCA pipeline is based on Tarassov et al.[43] and the procedures have also been published as a visualized protocol. The screens were performed with robotically manipulated pin tools (BM5-SC1, S&P Robotics Inc.). First, the preys were cherry-picked from 96-well plates to omnitrays in a 384 format on YPD + HPH solid media. Plates were then combined into the 1536 format on YPD + HPH. The array was constituted of 575 preys previously shown to interact physically with at least one SH3-containing protein as reported in BioGRID V3.4.16 along with 40 negative controls. The prey array comprised a border of control strains of two rows and two columns corresponding to the PPI between LSM8-DHFR F[1,2] and CDC39-DHFR F[3]. This double border was used to remove border effects. Preys are present in duplicate at a randomized position in the 1536 array (except for YAL041W which is present four times per array). Baits were crossed with two prey plates, resulting in four independent bait–prey tests for each PPI. Baits were grown in liquid YPD + NAT and then transferred on solid YPD + NAT omnitrays. They were then replicated on YPD + NAT omnitrays in 1536 array format. […]

CDC25
Protein-protein interaction distance between Abp1 SH3-swapped baits, to ABP1 (Abp1 bait with swapped SH3, distance to bait with ABP1 SH3, sheet Fig2C): 26.13
Protein-protein interaction distance between Abp1 SH3-swapped baits, to BBC1 (distance to Abp1 bait with BBC1 SH3, sheet Fig2C): 24.45
Protein-protein interaction distance between Abp1 SH3-swapped baits, to BEM1-1 (distance to Abp1 bait with BEM1-1 SH3, sheet Fig2C): 16.86
Protein-protein interaction distance between Abp1 SH3-swapped baits, to BEM1-2 (distance to Abp1 bait with BEM1-2 SH3, sheet Fig2C): 13.04
Protein-protein interaction distance between Abp1 SH3-swapped baits, to BOI1 (distance to Abp1 bait with BOI1 SH3, sheet Fig2C): 21
Protein-protein interaction distance between Abp1 SH3-swapped baits, to BOI2 (distance to Abp1 bait with BOI2 SH3, sheet Fig2C): 19.43
Protein-protein interaction distance between Abp1 SH3-swapped baits, to BUD14 (distance to Abp1 bait with BUD14 SH3, sheet Fig2C): 15.51
Protein-protein interaction distance between Abp1 SH3-swapped baits, to BZZ1-1 (distance to Abp1 bait with BZZ1-1 SH3, sheet Fig2C): 25.36
Protein-protein interaction distance between Abp1 SH3-swapped baits, to BZZ1-2 (distance to Abp1 bait with BZZ1-2 SH3, sheet Fig2C): 21.74
Protein-protein interaction distance between Abp1 SH3-swapped baits, to CDC25 (distance to Abp1 bait with CDC25 SH3, sheet Fig2C): 0.00
Protein-protein interaction distance between Abp1 SH3-swapped baits, to CTTN (distance to Abp1 bait with CTTN SH3, sheet Fig2C): 20.74
Protein-protein interaction distance between Abp1 SH3-swapped baits, to CYK3 (distance to Abp1 bait with CYK3 SH3, sheet Fig2C): 5.497
Protein-protein interaction distance between Abp1 SH3-swapped baits, to DBNL (distance to Abp1 bait with DBNL SH3, sheet Fig2C): 24.44
Protein-protein interaction distance between Abp1 SH3-swapped baits, to FUS1 (distance to Abp1 bait with FUS1 SH3, sheet Fig2C): 14.2
Protein-protein interaction distance between Abp1 SH3-swapped baits, to HCLS1 (distance to Abp1 bait with HCLS1 SH3, sheet Fig2C): 27.89
Protein-protein interaction distance between Abp1 SH3-swapped baits, to HOF1 (distance to Abp1 bait with HOF1 SH3, sheet Fig2C): 10.42
Protein-protein interaction distance between Abp1 SH3-swapped baits, to HSE1 (distance to Abp1 bait with HSE1 SH3, sheet Fig2C): 24.19
Protein-protein interaction distance between Abp1 SH3-swapped baits, to LSB1 (distance to Abp1 bait with LSB1 SH3, sheet Fig2C): 30.85
Protein-protein interaction distance between Abp1 SH3-swapped baits, to LSB3 (distance to Abp1 bait with LSB3 SH3, sheet Fig2C): 30.47
Protein-protein interaction distance between Abp1 SH3-swapped baits, to MYO3 (distance to Abp1 bait with MYO3 SH3, sheet Fig2C): 29.41
Protein-protein interaction distance between Abp1 SH3-swapped baits, to MYO5 (distance to Abp1 bait with MYO5 SH3, sheet Fig2C): 28.8
Protein-protein interaction distance between Abp1 SH3-swapped baits, to NBP2 (distance to Abp1 bait with NBP2 SH3, sheet Fig2C): 15.13
Protein-protein interaction distance between Abp1 SH3-swapped baits, to PEX13 (distance to Abp1 bait with PEX13 SH3, sheet Fig2C): 29.16
Protein-protein interaction distance between Abp1 SH3-swapped baits, to PIN3 (distance to Abp1 bait with PIN3 SH3, sheet Fig2C): 28.09
Protein-protein interaction distance between Abp1 SH3-swapped baits, to RVS167 (distance to Abp1 bait with RVS167 SH3, sheet Fig2C): 27.4
Protein-protein interaction distance between Abp1 SH3-swapped baits, to SDC25 (distance to Abp1 bait with SDC25 SH3, sheet Fig2C): 14.8
Protein-protein interaction distance between Abp1 SH3-swapped baits, to SHO1 (distance to Abp1 bait with SHO1 SH3, sheet Fig2C): 24.02
Protein-protein interaction distance between Abp1 SH3-swapped baits, to SLA1-1 (distance to Abp1 bait with SLA1-1 SH3, sheet Fig2C): 7.329
Protein-protein interaction distance between Abp1 SH3-swapped baits, to SLA1-2 (distance to Abp1 bait with SLA1-2 SH3, sheet Fig2C): 13.18
Protein-protein interaction distance between Abp1 SH3-swapped baits, to SLA1-3 (distance to Abp1 bait with SLA1-3 SH3, sheet Fig2C): 30.95
Protein-protein interaction distance between Abp1 SH3-swapped baits, to YSC84 (distance to Abp1 bait with YSC84 SH3, sheet Fig2C): 30.76
SH3-dependent PPIs - SH3-dependent PPIs gained by Abp1 (number of PPIs, difference, Abp1 SH3-swapped with the listed SH3, Fig2D,S2F): 3
SH3-dependent PPIs gained by Abp1 (number of PPIs, Abp1 SH3-swapped with the listed SH3, DHFR-PCA, Fig2D,S2F): 0
